PMC10815823 (Genes, 2024)
Where two headings read alike, the source gives them in different places.

Legend:
[1] = single-oral-dose pharmacokinetic study, plasma AVA and metabolite concentrations in pediatric hypercholesterolemia stratified by SLCO1B1 c.521T>C genotype; type: in vivo, human; settings: for AUC(0-t) / Cmax / Tmax: human, plasma, 10 mg; for Tmax: median (range)
Procedure: A screening physical examination (including sexual maturity rating via Tanner Staging) was performed prior to ingesting AVA. […] Samples were immediately centrifuged at 4 °C for 10 min at 600 g. Plasma was removed and stored at -80 °C until the analysis. […] All analytical reference compounds were purchased from Toronto Research Chemicals at their highest purity. Plasma proteins were precipitated with acetonitrile and centrifuged, and the filtrates were transferred to a new set of clean, labeled microcentrifuge tubes. An aliquot of the extracts was then transferred to a 96-well plate and analyzed by ultra-performance liquid chromatography tandem mass spectrometry (UPLC-MS/MS) with positive-ion electrospray ionization using multiple-reaction monitoring (MRM). […] Gradient elution was optimized with an acetonitrile-water-MeOH gradient: mobile phase A: water: MeOH: acetic acid (v/v/v), 90:10:0.1; mobile phase B: acetonitrile: methanol: acetic acid (v/v/v), 60:40:0.1. […] All the data acquisition and analysis were carried out by Masslynx 4.2 software. […] The individual peak plasma concentration (Cmax) and time to maximal concentration (Tmax) were obtained by direct examination of the plasma AVA concentration versus hour profile. The area under the plasma concentration versus time curve during the sampling period (AUC0-n) was calculated using the mixed log-linear method, where n refers to the final sampling time with quantifiable plasma AVA or AVA metabolite concentrations. […] Pharmacokinetic parameters were examined in JMP® version 14 (SAS, Cary, NC, USA). Pharmacokinetic parameters reflective of plasma AVA concentrations (Cmax, AUC0-n) and the SLCO1B1 genotype ([…] vs. T/C and C/C) were dependent variables and independent variables, respectively. The Kruskal-Wallis test was leveraged to compare the pharmacokinetic parameters related to genotype groups and demographics. Linear regression to examine the association between the AVA AUCn and […] genotype groups, adjusting for BMI z-score, sex and Tanner score, was performed. […] A single Tanner score was computed by averaging each participant's Tanner breast/testicular and Tanner public hair stage scores. AVA AUC0-24 was first modeled as a function of BMI z-score, sex and Tanner score to estimate the proportion of variability that could be accounted for by these participant characteristics. Then, the count of […] alleles was added to the model to estimate the additional variability accounted for. […] Therefore, the Cmax and AUC were normalized to a dose for each individual participant by dividing the exposure parameter value by the actual mg/kg dose received, then multiplying by the mean mg/kg dose for the entire cohort (e.g., participant AUC (ng·hr/mL)/participant dose (mg/kg) × cohort mean dose (mg/kg)).

[2] = pediatric cohorts; cited from earlier work
[3] = female, oral, Table S3, Gender: Female, mean (± SD), read-out: AUC0-24
[4] = oral, Table S1, entire cohort, median (IQR)
[5] = oral, Table S1, entire cohort, median (IQR), read-out: AUC 0-24
[6] = oral, Table S3, Ethnicity: African-American, mean (± SD), read-out: AUC0-24
[7] = oral, Table S3, Ethnicity: White, Hispanic, mean (± SD), read-out: AUC0-24
[8] = oral, Table S3, Ethnicity: White, non-Hispanic, mean (± SD), read-out: AUC0-24
[9] = oral, Table S3, Tanner Breast/Testicular Stage 2, mean (± SD), read-out: AUC0-24
[10] = oral, Table S3, Tanner Breast/Testicular Stage 3, read-out: AUC0-24
[11] = oral, Table S3, Tanner Breast/Testicular Stage 4, mean (± SD), read-out: AUC0-24
[12] = oral, Table S3, Tanner Breast/Testicular Stage 5, mean (± SD), read-out: AUC0-24
[13] = oral, Table S3, Tanner Pubic Stage 1, read-out: AUC0-24
[14] = oral, Table S3, Tanner Pubic Stage 2, mean (± SD), read-out: AUC0-24
[15] = oral, Table S3, Tanner Pubic Stage 3, read-out: AUC0-24
[16] = oral, Table S3, Tanner Pubic Stage 4, mean (± SD), read-out: AUC0-24
[17] = oral, Table S3, Tanner Pubic Stage 5, mean (± SD), read-out: AUC0-24
[18] = po, SLCO1B1 c.521C/C (n = 2), single oral 10 mg dose, mean (±SD)
[19] = po, SLCO1B1 c.521C/C (n = 2), single oral 10 mg dose
[20] = po, SLCO1B1 c.521C/C (n = 2), single oral 10 mg dose, mean (±SD), read-out: AUC0–24
[21] = po, SLCO1B1 c.521T/C (n = 13), single oral 10 mg dose, mean (±SD)
[22] = po, SLCO1B1 c.521T/C (n = 13), single oral 10 mg dose
[23] = po, SLCO1B1 c.521T/C (n = 13), single oral 10 mg dose, mean (±SD), read-out: AUC0–24
[24] = po, SLCO1B1 c.521T/T (n = 13), single oral 10 mg dose, mean (±SD)
[25] = po, SLCO1B1 c.521T/T (n = 13), single oral 10 mg dose
[26] = po, SLCO1B1 c.521T/T (n = 13), single oral 10 mg dose, mean (±SD), read-out: AUC0–24
[27] = po, entire cohort (n = 28), median (IQR), single oral 10 mg dose
[28] = po, entire cohort (n = 28), median (IQR), single oral 10 mg dose, read-out: AUC0–24
[29] = male, oral, Table S3, Gender: Male, mean (± SD), read-out: AUC0-24

AUC(0-t) [1, 3] [ng·h/mL] | Cmax [1, 4] [ng/mL] | AUC(0-t) [1, 5] [ng·h/mL] | AUC(0-t) [1, 6] [ng·h/mL] | AUC(0-t) [1, 7] [ng·h/mL] | AUC(0-t) [1, 8] [ng·h/mL] | AUC(0-t) [1, 9] [ng·h/mL] | AUC(0-t) [1, 10] [ng·h/mL] | AUC(0-t) [1, 11] [ng·h/mL] | AUC(0-t) [1, 12] [ng·h/mL] | AUC(0-t) [1, 13] [ng·h/mL] | AUC(0-t) [1, 14] [ng·h/mL] | AUC(0-t) [1, 15] [ng·h/mL] | AUC(0-t) [1, 16] [ng·h/mL] | AUC(0-t) [1, 17] [ng·h/mL] | Cmax [1, 18] [ng/mL] | Tmax [1, 19] [h] | AUC(0-t) [1, 20] [ng·h/mL] | Cmax [1, 21] [ng/mL] | Tmax [1, 22] [h] | SMILES | further results
18 | 1.1 | 14.5 | 16.7 | 17.2 | 16.4 | 31.9 | 23.4 | 13.4 | 12.9 | 39.2 | 32.7 | 12.7 | 8.5 | 13.7 | 1.9 | 7 | 31 | 1.3 | 5 | CC(C)c1c(C(=O)Nc2ccccc2O)c(-c2ccccc2)c(-c2ccc(F)cc2)n1CCC1CC(O)CC(=O)O1 (stereo not shown) [2-Hydroxy Atorvastatin Lactone, 2-hydroxyatorvastatin lactone] | effect of SLCO1B1 c.521T>C genotype on exposure ([1]; Kruskal–Wallis across genotype groups): not affected by genotype; AUC(0-t) [1, 23]: 17.4 ng·h/mL; Cmax [1, 24]: 1 ng/mL; Tmax [1, 25]: 7 h; AUC(0-t) [1, 26]: 14 ng·h/mL; Cmax [1, 27]: 1.1 ng/mL; AUC(0-t) [1, 28]: 14.5 ng·h/mL; AUC(0-t) [1, 29]: 15.7 ng·h/mL
12.1 | 0.9 | 8.7 | 11.4 | 13.2 | 10 | 23.3 | 17.3 | 7.9 | 8.5 | 15.4 | 27.7 | 7.8 | 5 | 8.9 | 1.5 | 6 | 27.8 | 1.1 | 4 | CC(C)c1c(C(=O)Nc2ccccc2)c(-c2ccccc2)c(-c2ccc(F)cc2)n1CC[C@@H]1C[C@@H](O)CC(=O)O1 [Atorvastatin Lactone, atorvastatin lactone] | mean Cmax fold higher, c.521C/C relative to c.521T/T ([1]; c.521C/C (n = 2) vs c.521T/T (n = 13)): 2.1 fold; mean Cmax fold higher, c.521T/C relative to c.521T/T ([1]; c.521T/C (n = 13) vs c.521T/T (n = 13)): 1.6 fold; mean AUC0–24 fold higher, c.521T/C relative to c.521T/T ([1]; c.521T/C vs reference genotype): 1.8 fold; AUC(0-t) [1, 23]: 13 ng·h/mL; Cmax [1, 24]: 0.7 ng/mL; Tmax [1, 25]: 2.5 h; AUC(0-t) [1, 26]: 7.2 ng·h/mL; Cmax [1, 27]: 0.9 ng/mL; AUC(0-t) [1, 28]: 8.7 ng·h/mL; AUC(0-t) [1, 29]: 10.7 ng·h/mL
 |  |  |  |  |  |  |  |  |  |  |  |  |  |  |  |  |  |  |  | CC(C)c1c(C(=O)Nc2ccccc2)c(-c2ccccc2)c(-c2ccc(F)cc2)n1CC[C@@H](O)C[C@@H](O)CC(=O)O [Atorvastatin, reference compound] | participants with secondary peaking suggestive of entero-hepatic recirculation ([1]; 12 of 28 participants): 43%; adverse events ([1]; single oral 10 mg dose, 28 participants): No adverse events were reported
7.3 | 0.7 | 6.4 | 6.1 | 7.6 | 6.9 | 6 | 6 | 4.7 | 8.1 | 5.1 | 6.7 | 4.1 | 3.6 | 8 | 1.3 | 5 | 10.8 | 0.8 | 3 | CC(C)c1c(C(=O)Nc2ccccc2O)c(-c2ccccc2)c(-c2ccc(F)cc2)n1CC[C@@H](O)C[C@@H](O)CC(=O)O [2-Hydroxy Atorvastatin, 2-hydroxyatorvastatin] | AUC(0-t) [1, 23]: 7.5 ng·h/mL; Cmax [1, 24]: 0.7 ng/mL; Tmax [1, 25]: 2 h; AUC(0-t) [1, 26]: 6.2 ng·h/mL; Cmax [1, 27]: 0.7 ng/mL; AUC(0-t) [1, 28]: 6.4 ng·h/mL; AUC(0-t) [1, 29]: 7 ng·h/mL
 |  |  |  |  |  |  |  |  |  |  |  |  |  |  |  |  |  |  |  | CC[C@H](C)C(=O)O[C@H]1C[C@H](O)C=C2C=C[C@H](C)[C@H](CC[C@@H](O)C[C@@H](O)CC(=O)O)[C@H]21 [pravastatin] | within-c.521T>C-genotype variability in plasma statin concentration [2]: 8- to 17 fold
